Measured values reported in patent publication US9315490B2, “2,5-substituted pyrimidines” (Grünenthal GmbH, priority 2014, dated 2016).

Target: T1, human PDE4B1 (Homo sapiens, UniProt Q07343)
T1 construct: host or cells: Sf9 cells
Assay: cAMP HTRF assay to determine the activity of hPDE4B1
Type: biochemical
Details: inhibition of PDE4B at a test concentration of 1 μM; for Inhibition in %: 1 µM
Description: Biological Testing cAMP HTRF® Assay to Determine the Activity of hPDE4B1
The inhibiting effect of the compounds on the enzyme activity of human PDE4B1 was measured by the quantification of 5′-adenosine monophosphate (5′-AMP), which is formed from 3′,5′-cyclic adenosine monophosphate (cAMP). Human recombinant enzyme, expressed in Sf9 cells, and the HTRF (homogeneous time-resolved fluorescence) detection method were used in the assay.
The test compound or water (control) was mixed with the human recombinant PDE4B1 enzyme (4.8 U) in a buffer consisting of 44.4 mM tris-HCl, 5.28 mM MgCl2, 2.64 mM DTT and 0.044% Tween 20 (pH 7.8). After adding the cAMP enzyme substrate (final concentration 40 nM), the mixture was incubated for 30 minutes at room temperature. Then a fluorescence acceptor (Dye2 marked with cAMP), a fluorescence donor (anti-cAMP antibody marked with a europium cryptate) and the non-specific phosphodiesterase inhibitor IBMX (3-isobutyl-1-methylxanthine; final concentration 1 mM) were added. After 60 minutes the fluorescence transfer, which correlates with the amount of remaining cAMP, was measured with a microplate reader (Rubystar, BMG) at λex=337 nm, λem=620 nm and λem=665 nm. The enzyme activity was calculated from the quotient formed from the measured signal at 665 nm and that at 620 nm. The result was expressed as the percentage inhibition of enzyme activity of the control (without PDE4 inhibitor). The enzyme was omitted for measurement of the basal control. IC50 values (IC50=concentration causing a half-maximal inhibition of control specific activity) were derived from dose response measurements with eight different concentrations (n=2; N=1-3).
Literature: N. Saldou et al., Comparison of recombinant human PDE4 isoforms: interaction with substrate and inhibitors, Cell. Signal. Vol. 10, No. 6, 427-440, 1998

T1 sequence (Q07343 whole entry): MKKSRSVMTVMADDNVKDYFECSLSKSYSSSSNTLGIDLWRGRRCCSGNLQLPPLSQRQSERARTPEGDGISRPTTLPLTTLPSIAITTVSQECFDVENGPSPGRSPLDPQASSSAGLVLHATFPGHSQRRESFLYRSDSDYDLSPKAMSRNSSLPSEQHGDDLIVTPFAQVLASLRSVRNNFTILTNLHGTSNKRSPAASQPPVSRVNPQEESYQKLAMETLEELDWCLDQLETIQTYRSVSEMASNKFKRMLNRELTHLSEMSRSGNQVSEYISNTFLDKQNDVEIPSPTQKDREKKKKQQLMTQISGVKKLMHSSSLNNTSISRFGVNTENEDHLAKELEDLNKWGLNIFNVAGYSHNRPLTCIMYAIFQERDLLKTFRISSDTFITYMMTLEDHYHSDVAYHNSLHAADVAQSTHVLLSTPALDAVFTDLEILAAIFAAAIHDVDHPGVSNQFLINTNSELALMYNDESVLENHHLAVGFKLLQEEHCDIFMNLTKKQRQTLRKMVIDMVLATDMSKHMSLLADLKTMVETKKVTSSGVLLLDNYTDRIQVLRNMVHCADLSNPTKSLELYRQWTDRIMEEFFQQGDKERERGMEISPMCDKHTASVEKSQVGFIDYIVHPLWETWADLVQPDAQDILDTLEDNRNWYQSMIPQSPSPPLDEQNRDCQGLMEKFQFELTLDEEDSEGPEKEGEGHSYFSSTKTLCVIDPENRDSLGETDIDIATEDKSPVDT

| SMILES | inhibition at 1 µM [%] | Inhibition in % [%] |
| --- | --- | --- |
| Cc1cccc(-c2cnc(-n3cc([S+](C)[O-])c4ccc(C(=O)N5CCNC(=O)C5)cc43)nc2)c1 (single isomer, unassigned) [Example 215, 4-(3-(Methylsulfinyl)-1-(5-(m-tolyl)pyrimidin-2-yl)-1H-indole-6-carbonyl)piperazin-2-one] | 110 |  |
| C[S+]([O-])c1cn(-c2ncc(-c3cc(F)ccn3)cn2)c2cc(C(=O)N3CCOCC3)ccc12 (stereo not shown) [Example 182, (1-(5-(4-Fluoropyridin-2-yl)pyrimidin-2-yl)-3-(methylsulfinyl)-1H-indol-6-yl)(morpholino)methanone] | 95 |  |
| COc1ccc(F)c(-c2cnc(-n3cc(S(C)(=O)=O)c4ccc(C(=O)N5CC[C@@H](N)C5)cc43)nc2)c1 [Example 230, (R)-(3-Aminopyrrolidin-1-yl)(1-(5-(2-fluoro-5-methoxyphenyl)pyrimidin-2-yl)-3-(methylsulfonyl)-1H-indol-6-yl)methanone] | 110 |  |
| CS(=O)(=O)c1cn(-c2ncc(-c3ccccc3)cn2)c2cc(C(=O)N3CC[C@@H](N)C3)ccc12 [Example 228, (R)-(3-Aminopyrrolidin-1-yl)(3-(methylsulfonyl)-1-(5-phenylpyrimidin-2-yl)-1H-indol-6-yl)methanone] | 104 |  |
| Cc1cccc(-c2cnc(-n3cc([S+](C)[O-])c4ccc(C(=O)N5CCOCC5)cc43)nc2)c1 (stereo not shown) [Example 37, (3-(Methylsulfinyl)-1-(5-(m-tolyl)pyrimidin-2-yl)-1H-indol-6-yl)(morpholino)methanone] | 103 |  |
| CN(CC(=O)O)C(=O)c1ccc2c([S+](C)[O-])cn(-c3ncc(-c4ccccc4F)cn3)c2c1 (stereo not shown) [Example 173, 2-(1-(5-(2-Fluorophenyl)pyrimidin-2-yl)-N-methyl-3-(methylsulfinyl)-1H-indole-6-carboxamido)acetic acid] | 70 |  |
| C[S+]([O-])c1cn(-c2ncc(-c3ccc(F)cc3)cn2)c2cc(C(=O)N3CCOCC3)ccc12 (stereo not shown) [Example 32, (1-(5-(4-Fluorophenyl)pyrimidin-2-yl)-3-(methylsulfinyl)-1H-indol-6-yl)(morpholino)methanone] | 80 |  |
| COc1cccc(-c2cnc(-n3cc([S+](C)[O-])c4ccc(C(=O)N5CCNC(=O)C5)cc43)nc2)c1 (single isomer, unassigned) [Example 218, 4-(1-(5-(3-Methoxyphenyl)pyrimidin-2-yl)-3-(methylsulfinyl)-1H-indole-6-carbonyl)piperazin-2-one] |  | 98 |
| CN(CC(N)=O)C(=O)c1ccc2c([S+](C)[O-])cn(-c3ncc(-c4ccccc4F)cn3)c2c1 (stereo not shown) [Example 174, N-(2-Amino-2-oxoethyl)-1-(5-(2-fluorophenyl)pyrimidin-2-yl)-N-methyl-3-(methylsulfinyl)-1H-indole-6-carboxamide] | 105 |  |
| C[S+]([O-])c1cn(-c2ncc(-c3cccc(F)n3)cn2)c2cc(C(=O)N3CCOCC3)ccc12 (stereo not shown) [Example 185, (1-(5-(6-Fluoropyridin-2-yl)pyrimidin-2-yl)-3-(methylsulfinyl)-1H-indol-6-yl)(morpholino)methanone] | 97 |  |
| COc1ccc(F)c(-c2cnc(-n3cc([S+](C)[O-])c4ccc(C(=O)N5CCOCC5)cc43)nc2)c1 (stereo not shown) [Example 38, (1-(5-(2-Fluoro-5-methoxyphenyl)pyrimidin-2-yl)-3-(methylsulfinyl)-1H-indol-6-yl)(morpholino)methanone] | 102 |  |
| CCN(CC)C(=O)c1ccc2c([S+](C)[O-])cn(-c3ncc(-c4ccccc4F)cn3)c2c1 (stereo not shown) [Example 357, N,N-Diethyl-1-(5-(2-fluorophenyl)pyrimidin-2-yl)-3-(methylsulfinyl)-1H-indole-6-carboxamide] | 107 |  |
| C[S+]([O-])c1cn(-c2ncc(-c3cccc(C#N)n3)cn2)c2cc(C(=O)N3CCOCC3)ccc12 (stereo not shown) [Example 183, 6-(2-(3-(Methylsulfinyl)-6-(morpholine-4-carbonyl)-1H-indol-1-yl)pyrimidin-5-yl)picolinonitrile] | 60 |  |
| CN(CC1CC1)C(=O)c1ccc2c([S+](C)[O-])cn(-c3ncc(-c4ccccc4F)cn3)c2c1 (stereo not shown) [Example 360, N-(Cyclopropylmethyl)-1-(5-(2-fluorophenyl)pyrimidin-2-yl)-N-methyl-3-(methylsulfinyl)-1H-indole-6-carboxamide] | 75 |  |
| C[S+]([O-])c1cn(-c2ncc(-c3ccccc3)cn2)c2cc(C(=O)N3CC[C@@H](N)C3)ccc12 (stereo partly drawn) [Example 223, ((R)-3-Aminopyrrolidin-1-yl)(3-(methylsulfinyl)-1-(5-phenylpyrimidin-2-yl)-1H-indol-6-yl)methanone] | 89 |  |
| C[S+]([O-])c1cn(-c2ncc(-c3cccc(C#N)c3)cn2)c2cc(C(=O)N3CCOCC3)ccc12 (stereo not shown) [Example 40, 3-(2-(3-(Methylsulfinyl)-6-(morpholine-4-carbonyl)-1H-indol-1-yl)pyrimidin-5-yl)benzonitrile] | 93 |  |
| C[S+]([O-])c1cn(-c2ncc(-c3cc(C#N)ccc3F)cn2)c2cc(C(=O)N3CC[C@@H](N)C3)ccc12 (stereo partly drawn) [Example 225, 3-(2-(6-((R)-3-Aminopyrrolidine-1-carbonyl)-3-(methylsulfinyl)-1H-indol-1-yl)pyrimidin-5-yl)-4-fluorobenzonitrile] | 92 |  |

Further lines, results first:

| inhibition at 1 µM [%] | Inhibition in % [%] | SMILES |
| --- | --- | --- |
| 64 |  | C[S+]([O-])c1cn(-c2ncc(-c3ccccc3F)cn2)c2cc(C(=O)N3C[C@H]4C[C@@H]3CO4)ccc12 (stereo partly drawn) [Example 243, (1R,4R)-2-Oxa-5-azabicyclo[2.2.1]heptan-5-yl(1-(5-(2-fluorophenyl)pyrimidin-2-yl)-3-(methylsulfinyl)-1H-indol-6-yl)methanone] |
| 0 |  | CC(=O)N1CCN(C(=O)c2ccc3c([S+](C)[O-])cn(-c4ncc(-c5ccccc5F)cn4)c3c2)CC1 (stereo not shown) [Example 385, 1-(4-(1-(5-(2-Fluorophenyl)pyrimidin-2-yl)-3-(methylsulfinyl)-1H-indole-6-carbonyl)piperazin-1-yl)ethanone] |
| 77 |  | CNC(=O)c1ccc2c([S+](C)[O-])cn(-c3ncc(-c4ccccc4F)cn3)c2c1 (stereo not shown) [Example 61, 1-(5-(2-Fluorophenyl)pyrimidin-2-yl)-N-methyl-3-(methylsulfinyl)-1H-indole-6-carboxamide] |
| 63 |  | C[S+]([O-])c1cn(-c2ncc(-c3ccccc3F)cn2)c2cc(C(=O)N3CCC[C@H](O)C3)ccc12 (stereo partly drawn) [Example 81, (1-(5-(2-Fluorophenyl)pyrimidin-2-yl)-3-(methylsulfinyl)-1H-indol-6-yl)((S)-3-hydroxypiperidin-1-yl)methanone] |
| 70 |  | C[S+]([O-])c1cn(-c2ncc(-c3ccccc3F)cn2)c2cc(C(=O)N3CCC[C@@H]3CO)ccc12 (stereo partly drawn) [Example 78, (1-(5-(2-Fluorophenyl)pyrimidin-2-yl)-3-(methylsulfinyl)-1H-indol-6-yl)((R)-2-(hydroxymethyl)pyrrolidin-1-yl)methanone] |
| 105 |  | C[S+]([O-])c1cn(-c2ncc(-c3ccccc3F)cn2)c2cc(C(=O)N3CCOCC3)ccc12 (single isomer, unassigned) [Example 165, (1-(5-(2-Fluorophenyl)pyrimidin-2-yl)-3-(methylsulfinyl)-1H-indol-6-yl)(morpholino)methanone] |
| 103 |  | C[S+]([O-])c1cn(-c2ncc(-c3ccccc3F)cn2)c2cc(C(=O)N3CCSCC3)ccc12 (stereo not shown) [Example 368, (1-(5-(2-Fluorophenyl)pyrimidin-2-yl)-3-(methylsulfinyl)-1H-indol-6-yl)(thiomorpholino)methanone] |
| 115 |  | C[C@H]1CN(C(=O)c2ccc3c([S+](C)[O-])cn(-c4ncc(-c5ccccc5F)cn4)c3c2)CCO1 (stereo partly drawn) [Example 85, (1-(5-(2-Fluorophenyl)pyrimidin-2-yl)-3-(methylsulfinyl)-1H-indol-6-yl)((S)-2-methylmorpholino)methanone] |
| 96 |  | CCN(C)C(=O)c1ccc2c([S+](C)[O-])cn(-c3ncc(-c4ccccc4F)cn3)c2c1 (stereo not shown) [Example 356, N-Ethyl-1-(5-(2-fluorophenyl)pyrimidin-2-yl)-N-methyl-3-(methylsulfinyl)-1H-indole-6-carboxamide] |
| 47 |  | CN(C)[C@@H]1CCN(C(=O)c2ccc3c([S+](C)[O-])cn(-c4ncc(-c5ccccc5F)cn4)c3c2)C1 (stereo partly drawn) [Example 374, ((R)-3-(Dimethylamino)pyrrolidin-1-yl)(1-(5-(2-fluorophenyl)-pyrimidin-2-yl)-3-(methylsulfinyl)-1H-indol-6-yl)methanone] |
|  | 33 | COC1CCN(C(=O)c2ccc3c([S+](C)[O-])cn(-c4ncc(-c5ccccc5F)cn4)c3c2)CC1 (stereo not shown) [Example 72, (1-(5-(2-Fluorophenyl)pyrimidin-2-yl)-3-(methylsulfinyl)-1H-indol-6-yl)(4-methoxypiperidin-1-yl)methanone] |
